Experimental findings from patent publication US20050256093A1, “Branched polyamine steroid derivatives” (Leo Pharma, priority 2002, published 2005) are described below.

≈ marks a conversion by molar mass, not a printed value.

Common to all, as to assay type: cell-based
One test has as its system Asbergillus niger ZM35. Description: agar cup assay MIC. The settings on record: Aspergillus niger. The text has this: (§1) In vitro investigations have shown a significant potency of the compounds of the invention against a large number of bacteria including gram-positive and gram-negative strains (Staphyiococci, Streptococci, Corynebacteriae, Mycobacteriae, Proteus, Propionibacterium, Pseudomonas, Neisseriae, E. coli) and fungal strains (Candida and Aspergillus). […] In addition, the studies of post-antibiotic effects point towards a strong bactericidal effect of the compounds of the invention. […] Minimum Inhibitory Concentrations were estimated using an agar cup assay. Bacterial strains were obtained from the American Type Culture Collection or from our own collection of clinical isolates. Colonies from fresh overnight culture were resuspended in saline water to 0.5 MacFarland corresponding to 10^8 CFU/ml. 200 ml Mueller Hinton agar (Oxoid) at 48° C. was inoculated at a concentration of 10^6 CFU/ml and poured into square petri dishes (245×245 mm). Holes were made in the inoculated plates and 200 μl of the compounds to be tested were disposed into each hole. A dilution series of compounds contained six dilution between 0.25 and 125 μg/ml. For Streptococci Mueller Hinton agar was supplemented with 5% sheep blood. Plates were appropriately incubated and zone diameters of growth inhibition were measured using an electronic caliper. MICs were estimated using a linear regression curve between the zone diameter of growth inhibition and the log2 of the sample concentration. The microbiological assay set up is in agreement with the European Pharmacopoeia 3rd edition (1997). The inhibition zones are function of the concentration of the compounds used. Known antibiotics including fusidic acid (FA), mupirocin and linezolid were used as reference compounds.

Another test has as its system Candida albicans ZA. The test can be described thus: agar cup assay MIC.
Excerpt: as §1

The test system of test [1] is Corynebacterium xerosis FF. The test can be described thus: agar cup assay MIC.
Excerpt: as §1

A further test deals with E. coli HA165. Description: agar cup assay MIC. The settings on record: Escherichia coli.
Excerpt: as §1

Test [2] has as its system Propionibacterium acnes FN33. The test can be described thus: agar cup assay MIC. The settings on record: Cutibacterium acnes.
Excerpt: as §1

Test [3] has as its system Pseudomonas aeruginosa BA17. The test can be described thus: agar cup assay MIC.
Excerpt: as §1

The next test deals with S. aureus CJ200. The test can be described thus: agar cup assay MIC. The settings on record: Staphylococcus aureus.
Excerpt: as §1

The test system of a further test is S. aureus CJ234F. The test can be described thus: agar cup assay MIC. The settings on record: Staphylococcus aureus; S. aureus CJ234F (MRSA, Fus. resistant).
Excerpt: as §1

The subject of another test is S. aureus CJ234R. The test can be described thus: agar cup assay MIC. The settings on record: Staphylococcus aureus; S. aureus CJ234R (MRSA, Rifampicin resistant).
Excerpt: as §1

Another test concerns S. aureus CJ247. The test can be described thus: agar cup assay MIC. The settings on record: Staphylococcus aureus.
Excerpt: as §1

A further test relates to S. aureus N6. Description: agar cup assay MIC. The settings on record: Staphylococcus aureus; S. aureus N6 (Fus. resistant).
Excerpt: as §1

In another test the test system is S. epidermis CK5. The test can be described thus: agar cup assay MIC. The settings on record: Staphylococcus epidermidis.
Excerpt: as §1

Test [4] concerns Saccaromyces cervisiae ZZ7. Description: agar cup assay MIC. The settings on record: Saccharomyces cerevisiae.
Excerpt: as §1

The subject of test [5] is Streptococcus faecium EI19. The test can be described thus: agar cup assay MIC. The settings on record: Enterococcus faecium; Streptococcus faecium EI19 (Penicillin resistant); agar with 5% sheep blood.
Excerpt: as §1

For test [6], the system named is Streptococcus pyogenes EC88. Description: agar cup assay MIC. The settings on record: agar with 5% sheep blood.
Excerpt: as §1

The next test concerns S. aureus. Description: Minimum Bactericidal Concentration (MBC), broth culture and colony count. The settings on record: staphylococci, LB broth, aerobic; concentration twice that of MIC; FIG. 1. The method, then: (§2) 10^6 bacteria were inoculated in 3 ml growth media (S. aureus—LB broth, S. pyogenes—TH broth) containing approximately 2×MIC, 1×MIC, 0.5×MIC and O×MIC respectively of compound 102 (MIC being relative to the strain being tested). S. aureus strains were grown aerobically, and S. pyogenes anaerobically in a carbon dioxide enriched incubator. Samples were diluted and plated on LA-plates (S. aureus) or blood-agar plates (S. pyogenes) followed by 24 hours incubation at 37° C. before being scored for colonies.

A further test deals with S. pyogenes. The description is as above. The settings on record: streptococci, TH broth, anaerobic; concentration twice that of MIC; FIG. 2. Here is the method: as §2

As usually defined, the MIC is the lowest concentration found to suppress growth.

On to `CC(=O)O[C@H]1C[C@@]2(C)C(C[C@@H](O)C3[C@@]4(C)CC[C@@H](O)[C@@H](C)C4CC[C@@]32C)[C@@H]1[C@H](CCCC(C)C)C(=O)NCCN(CCN)CCN` (stereo partly drawn) [Compound 101, 21-N-{2′-[bis(2′-aminoethyl)amino]ethyl}-17R,20S,24,25-tetrahydrofusid-21-amide], for which the MIC with Asbergillus niger ZM35 stood at 4 mg/L (≈ 6.16 µM); in the test with Candida albicans ZA, 16 mg/L (≈ 24.7 µM); in test [1], 4 mg/L (≈ 6.16 µM); in the test on E. coli HA165, 16 mg/L (≈ 24.7 µM); in test [2] it was 4 mg/L (≈ 6.16 µM); in test [3], 64 mg/L (≈ 98.6 µM). Further, the minimal inhibitory concentration (MIC) with S. aureus CJ200, against S. aureus CJ234F, against S. aureus CJ234R, with S. aureus CJ247, in the test with S. aureus N6 and against S. epidermis CK5 was 4 mg/L (≈ 6.16 µM) each time. Besides, the MIC in [4] came to 4 mg/L (≈ 6.16 µM); in [5] it was 16 mg/L (≈ 24.7 µM); in [6], 16 mg/L (≈ 24.7 µM).

Turning to `CC(=O)O[C@H]1C[C@@]2(C)C(C[C@@H](O)C3[C@@]4(C)CC[C@H](O)[C@@H](C)C4CC[C@@]32C)[C@@H]1[C@H](CCCC(C)C)C(=O)NCCN(CCN)CCN` (some centres unmarked) [Compound 105], the MIC with Asbergillus niger ZM35 came to 64 mg/L (≈ 98.6 µM); in the test on Candida albicans ZA it was 16 mg/L (≈ 24.7 µM); in test [1], 16 mg/L (≈ 24.7 µM); in the test with E. coli HA165, 64 mg/L (≈ 98.6 µM); in [2], 16 mg/L (≈ 24.7 µM); in test [3], 16 mg/L (≈ 24.7 µM). Further, the MIC against S. aureus CJ200, in the test on S. aureus CJ234F, with S. aureus CJ234R, with S. aureus CJ247, against S. aureus N6 and in the test on S. epidermis CK5 was 16 mg/L (≈ 24.7 µM) throughout. The MIC in test [4], in test [5] and in test [6] was 64 mg/L (≈ 98.6 µM) each time.

Regarding `CC(=O)O[C@H]1C[C@@]2(C)C(CCC3[C@@]4(C)CC[C@@H](O)[C@@H](C)C4CC[C@@]32C)[C@@H]1[C@H](CCCC(C)C)C(=O)NCCN(CCN)CCN` (stereo partly drawn) [Compound 102, 21-N-{2′-[bis(2′-aminoethyl)amino]ethyl}-11-desoxy-17R,20S,24,25-tetrahydrofusid-21-amide], the MIC against Asbergillus niger ZM35 was 4 mg/L (≈ 6.32 µM); in the test with Candida albicans ZA it was 4 mg/L (≈ 6.32 µM); in test [1], 4 mg/L (≈ 6.32 µM); in the test on E. coli HA165, 16 mg/L (≈ 25.3 µM); in test [2], 4 mg/L (≈ 6.32 µM); in test [3], 16 mg/L (≈ 25.3 µM). The MIC in the test with S. aureus CJ200, against S. aureus CJ234F, in the test with S. aureus CJ234R, in the test on S. aureus CJ247, against S. aureus N6 and in the test with S. epidermis CK5 was 4 mg/L (≈ 6.32 µM) throughout. For the same compound, the MIC in [4], in test [5] and in test [6] was 16 mg/L (≈ 25.3 µM) each time. Moreover, the “bactericidal impact (MBC)” value in the test on S. aureus and in the test with S. pyogenes was “strong bacterial killing” each time.

Turning to `C[C@H](CCC(=O)NCCN(CCN)CCN)[C@H]1CC[C@H]2[C@@H]3CC[C@@H]4C[C@H](O)CC[C@]4(C)[C@H]3[C@H](O)C[C@]12C` [Compound 107], the MIC (against Asbergillus niger ZM35; against Candida albicans ZA; in test [1]; against E. coli HA165; in test [2]; in [3]) was 16 mg/L (≈ 30.7 µM) throughout. Besides, the minimal inhibitory concentration (MIC) against S. aureus CJ200, in the test on S. aureus CJ234F, against S. aureus CJ234R, against S. aureus CJ247, against S. aureus N6 and with S. epidermis CK5 was 16 mg/L (≈ 30.7 µM) in each case. Also, the minimum inhibitory concentration (MIC) amounted to 4 mg/L (≈ 7.68 µM) in [4], 16 mg/L (≈ 30.7 µM) in test [5] and 16 mg/L (≈ 30.7 µM) in test [6].

As for `CC(C)CCCC(C(=O)NCCN(CCN)CCN)[C@@H]1CC[C@@]2(C)C1C[C@@H](O)C1[C@@]3(C)CC[C@@H](O)[C@@H](C)C3CC[C@@]12C` (stereo partly drawn) [Compound 103, 21-N-{2′-[bis(2′-aminoethyl)amino]ethyl}-16-desacetoxy-17R,20S,24,25-tetrahydrofusid-21-amide], the minimal inhibitory concentration (MIC) in the test on Asbergillus niger ZM35 was over 125 mg/L; against Candida albicans ZA, 1 mg/L (≈ 1.69 µM); in test [1] it was 1 mg/L (≈ 1.69 µM); against E. coli HA165, 4 mg/L (≈ 6.77 µM); in test [2] it was 1 mg/L (≈ 1.69 µM); in [3] it was 16 mg/L (≈ 27.1 µM). The minimum inhibitory concentration (MIC) with S. aureus CJ200, against S. aureus CJ234F, against S. aureus CJ234R, in the test on S. aureus CJ247, with S. aureus N6 and against S. epidermis CK5 was 1 mg/L (≈ 1.69 µM) throughout. In addition, the values for the MIC in test [4], in [5] and in test [6] were 4 mg/L (≈ 6.77 µM), 16 mg/L (≈ 27.1 µM) and 4 mg/L (≈ 6.77 µM), respectively.
